Assay results published in article PMC5613693, “Interactions of Desmethoxyyangonin, a Secondary Metabolite from Renealmia alpinia, with Human Monoamine Oxidase-A and Oxidase-B” (Evidence-based Complementary and Alternative Medicine : eCAM, 2017).
Like-named read-outs stand apart in the source and are kept apart here. Values belong to the compound of their own block, whether it stands above or below them.

How the values were obtained:
Format in all cases: biochemical
recombinant human MAO-B [1] = target: T1, recombinant human MAO-B (Homo sapiens, UniProt P27338); assay: Fluorometric kynuramine deamination assay, MAO-B inhibition (IC50); conditions: for IC50: kynuramine 50 μM, mean ± SD of triplicate, read-out: Monoamine oxidase-B IC50; for Index MAO-A/B: ratio of IC50 MAO-A / IC50 MAO-B
T1 construct: purchased BD Biosciences (Bedford, MA, USA); host or cells: baculovirus (Autographa californica) infected insect cells (BTI-TN-5B1-4)
T1 sequence (P27338 1-520): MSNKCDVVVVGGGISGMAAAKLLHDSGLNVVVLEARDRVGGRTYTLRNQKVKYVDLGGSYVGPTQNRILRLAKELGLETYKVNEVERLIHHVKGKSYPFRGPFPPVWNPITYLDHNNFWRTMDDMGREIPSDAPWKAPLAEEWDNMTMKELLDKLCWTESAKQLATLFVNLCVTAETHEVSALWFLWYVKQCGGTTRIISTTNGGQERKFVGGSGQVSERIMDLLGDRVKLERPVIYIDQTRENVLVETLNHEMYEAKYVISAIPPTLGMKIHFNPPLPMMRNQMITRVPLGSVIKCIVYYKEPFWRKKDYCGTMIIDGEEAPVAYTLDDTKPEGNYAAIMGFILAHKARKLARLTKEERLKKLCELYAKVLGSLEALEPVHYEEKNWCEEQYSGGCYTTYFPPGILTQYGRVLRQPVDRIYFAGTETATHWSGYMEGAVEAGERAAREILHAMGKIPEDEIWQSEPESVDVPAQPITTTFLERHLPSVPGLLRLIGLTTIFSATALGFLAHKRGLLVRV
Description: (§1) Pure recombinant human monoamine oxidases (MAO-A and MAO-B) enzymes overexpressed in baculovirus (Autographa californica) infected insect cells (BTI-TN-5B1-4) were purchased from BD Biosciences, (Bedford, MA, USA).
(§2) Stock solutions of the test compounds/extracts were prepared in DMSO and diluted further in 0.1 M potassium phosphate buffer (pH 7.4) to obtain the desired concentrations. MAO-A and MAO-B activities were determined by fluorometric kynuramine deamination assay set up in 384-well solid white flat-bottom plates. MAO-A and MAO-B inhibition activities (IC50 values) were determined using fixed concentration of the substrate kynuramine and varying concentrations of the test compounds or extracts. The enzyme reactions were carried out in 0.1 M potassium phosphate buffer (pH-7.4). […] The reaction mixtures with buffer/substrate/inhibitor were preincubated for 10 minutes at 37°C, followed by addition of MAO-A and MAO-B to initiate the reaction. The solid white microplates were incubated for 20 minutes at 37°C and the enzymatic reaction was stopped by addition of 28 µL of 2 N NaOH to each well. The deaminated product of kynuramine, which spontaneously cyclizes to 4-hydroxyquinoline, was measured fluorometrically at 320 nm excitation and 380 nm emission wavelengths with a plate reader (SpectraMax M5, Molecular Devices, Sunnyvale, CA, USA). The IC50 values were computed by XL-Fit® from the dose-response inhibition curves.

recombinant human MAO-A [2] = target: T2, recombinant human MAO-A (Homo sapiens, UniProt P21397); assay: Fluorometric kynuramine deamination assay, MAO-A inhibition (IC50)
T2 construct: purchased BD Biosciences (Bedford, MA, USA); host or cells: baculovirus (Autographa californica) infected insect cells (BTI-TN-5B1-4)
T2 sequence (P21397 1-527): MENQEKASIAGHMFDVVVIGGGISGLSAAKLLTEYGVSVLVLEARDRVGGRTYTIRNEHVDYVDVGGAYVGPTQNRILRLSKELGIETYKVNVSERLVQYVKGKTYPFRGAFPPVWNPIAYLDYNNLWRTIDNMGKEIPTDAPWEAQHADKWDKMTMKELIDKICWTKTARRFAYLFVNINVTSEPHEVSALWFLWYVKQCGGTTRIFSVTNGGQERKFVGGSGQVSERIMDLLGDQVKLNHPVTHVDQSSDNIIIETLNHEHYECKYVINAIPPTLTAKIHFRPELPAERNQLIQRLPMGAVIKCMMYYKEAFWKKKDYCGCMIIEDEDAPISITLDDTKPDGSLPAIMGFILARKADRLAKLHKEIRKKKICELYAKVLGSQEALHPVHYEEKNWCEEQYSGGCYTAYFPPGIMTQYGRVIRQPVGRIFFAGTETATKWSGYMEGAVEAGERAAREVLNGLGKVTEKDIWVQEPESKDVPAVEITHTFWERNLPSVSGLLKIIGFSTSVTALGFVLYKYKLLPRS
Description: as §1, §2

recombinant human MAO-B [3] = target: T1, recombinant human MAO-B; assay: Enzyme kinetics and mechanism of inhibition of MAO-B; conditions: for Type of Inhibition, Monoamine oxidase-B: Lineweaver-Burk / dialysis; for Selectivity / higher affinity for MAO-B than MAO-A (by Ki): from Ki values
Description: (§3) Results are presented as double reciprocal Lineweaver-Burk plots. The kinetic data, namely, KM, Vmax, and Ki values, were calculated by SigmaPlot 12.3 with enzyme-kinetics module using Michaelis-Menten equation. The results were also analyzed for the type of inhibition.
(§4) To comprehend the type of inhibition, we examined 6 against both MAO-A and MAO-B at varying concentrations of kynuramine, a nonselective substrate. Desmethoxyyangonin 6 was tested at two concentrations: one above and the other below the IC50 value. For each experiment, three sets of assays were done at variable concentrations of the substrate: two concentrations of the inhibitor/compound and one control without inhibitors. The results are presented as double reciprocal Lineweaver-Burk plots and the kinetic data, namely, KM, Vmax, and Ki values, were computed by SigmaPlot 12.3 with enzyme-kinetics module using Michaelis-Menten equation (Table 2).

recombinant human MAO-A [4] = target: T2, recombinant human MAO-A; assay: Time-dependent enzyme inhibition assay, MAO-A; conditions: 7.50 μM, preincubation 0-15 min
Description: (§5) MAO-A and MAO-B enzymes were preincubated for different time periods (0–15 min) with the inhibitor. […] Controls without inhibitors were also run simultaneously. The enzyme activities were determined as described above.
(§6) The control enzymes without inhibitor were also run concurrently. […] The binding characteristics of desmethoxyyangonin 6 with MAO-A and MAO-B were examined by equilibrium dialysis to measure dissociation of the enzyme-inhibitor complex (Figure 6). MAO-A and MAO-B were incubated with high concentration of desmethoxyyangonin 6 for 20 minutes at 37°C to allow binding of inhibitor with the enzyme and formation of enzyme-inhibitor complex. The mixtures of enzyme-inhibitor complex were dialyzed overnight at 4°C against 25 mM KHPO4 (pH-7.4) buffer. The enzyme activities were examined before and after dialysis. Through overnight dialysis, the recombinant human MAO-A enzyme lost about 10–15% of activity. Incubation of MAO-A with 20.0 and 100 μM concentrations of desmethoxyyangonin 6 inhibited more than 65% of the enzyme activity (Figure 6). After the dialysis, more than 90% catalytic activity of MAO-A was recovered from enzyme-desmethoxyyangonin 6 incubation mixtures. Similarly, MAO-B lost about 10–15% of the enzyme activity during overnight dialysis.

recombinant human MAO-A [5] = target: T2, recombinant human MAO-A; assay: Enzyme kinetics and mechanism of inhibition of MAO-A; conditions: Lineweaver-Burk / dialysis
Description: as §3, §4

recombinant human MAO-B [6] = target: T1, recombinant human MAO-B; assay: Time-dependent enzyme inhibition assay, MAO-B; conditions: 0.40 μM, preincubation 0-15 min
Description: as §5, §6

recombinant human MAO-A [7] = target: T2, recombinant human MAO-A; assay: Equilibrium dialysis assay of enzyme-inhibitor complex, MAO-A
Description: (§7) Binding and inhibition of MAO-A and MAO-B with desmethoxyyangonin 6 were further examined by incubating the enzyme with high concentrations of the inhibitor followed by extensive dialysis of the enzyme-inhibitor complex and recovery of enzyme activities. MAO-A (0.05 mg/mL protein) was incubated with desmethoxyyangonin 6 (20 μM and 100.0 μM) and MAO-B (0.05 mg/mL protein) was incubated with desmethoxyyangonin 6 (1.50 μM and 20.0 μM) in an enzyme incubation mixture of 1 mL containing 100 mM potassium phosphate buffer (pH 7.4). Formation of enzyme-inhibitor complex was allowed by incubation of the reaction mixtures for 20 min at 37°C. The enzyme-inhibitor mixtures after incubation were chilled, transferred to the dialysis bags, and dialyzed against 25 mM potassium phosphate buffer (pH 7.4) for 14–16 hours at 4°C (changing the dialysis buffer three times). The enzyme catalytic activities were measured before and after dialysis.
as §6

recombinant human MAO-B [8] = target: T1, recombinant human MAO-B; assay: Equilibrium dialysis assay of enzyme-inhibitor complex, MAO-B
Description: as §7, §6

[9] = kynuramine 80 μM, mean ± SD of triplicate, read-out: Monoamine oxidase-A IC50
[10] = equilibrium dialysis dissociation

Compound: COc1ccc([C@@H]2CC(=O)c3c(O)cc(OC)cc3O2)cc1 [4′-Methyl ether sakuranetin, 2, naringenin 7,4′-dimethyl ether]
IC50 (recombinant human MAO-B [1]): > 100 µM | IC50 (recombinant human MAO-A [2]; [9]): 31.4 ± 4.58 µM

Compound: COc1cc(O)c2c(c1)O[C@H](c1ccc(O)cc1)CC2=O [Sakuranetin, 3, naringenin 7-methyl ether]
IC50 (recombinant human MAO-B [1]): 36.5 ± 6.63 µM | Index MAO-A/B (recombinant human MAO-B [1]): 1.246 | IC50 (recombinant human MAO-A [2]): 45.5 ± 5.71 µM

Compound: O[C@H](CCc1ccccc1)C[C@@H](O)CCc1ccccc1 [Yashabushidiol A, 5, 3,5-heptanediol-1,7-diphenyl]
IC50 (recombinant human MAO-B [1]): 35.38 ± 0.121 µM | IC50 (recombinant human MAO-A [2]; [9]): > 100 µM

Now from value to compound:

Preferential inhibition of MAO-B than MAO-A (by IC50) (recombinant human MAO-B [1]; from IC50 values): 15 fold | IC50 (recombinant human MAO-B [1]): 0.123 µM | Type of Inhibition, Monoamine oxidase-B (recombinant human MAO-B [3]): Competitive/reversible | Type of Inhibition, Monoamine oxidase-B (recombinant human MAO-B [3]; listed as 6): competitive | Selectivity / higher affinity for MAO-B than MAO-A (by Ki) (recombinant human MAO-B [3]; listed as Compound 6): about 30 fold | Selectivity / higher affinity for MAO-B than MAO-A (by Ki) (recombinant human MAO-B [3]; listed as desmethoxyyangonin 6): 29 fold | Time dependence of MAO-A inhibition (recombinant human MAO-A [4]): not time-dependent | Type of Inhibition, Monoamine oxidase-A (recombinant human MAO-A [5]): Mixed/reversible | Type of Inhibition, Monoamine oxidase-A (recombinant human MAO-A [5]; listed as desmethoxyyangonin 6): mixed inhibitor | Time dependence of MAO-B inhibition (recombinant human MAO-B [6]): not time-dependent | MAO inhibition in words (recombinant human MAO-A [2]; MAO-A and MAO-B inhibition assays): potent MAO inhibition | IC50 (recombinant human MAO-A [2]; [9]): 1.85 ± 0.086 µM | Inhibition of MAO-A enzyme activity before dialysis (recombinant human MAO-A [7]; 20.0 and 100 μM, 20 min at 37°C): more than 65% | Catalytic activity of MAO-A recovered after dialysis (recombinant human MAO-A [7]; 20.0 and 100 μM, overnight dialysis at 4°C): more than 90% | Reversibility of MAO-A inhibition (recombinant human MAO-A [7]; [10]): reversible binding | Inhibition of MAO-B enzyme activity before dialysis (recombinant human MAO-B [8]; 1.50 and 20.0 μM, 20 min at 37°C): more than 90% | Recovery of MAO-B enzyme activity after dialysis (recombinant human MAO-B [8]; 1.50 and 20.0 μM, overnight dialysis at 4°C): fully recovered | Reversibility of MAO-B inhibition (recombinant human MAO-B [8]; [10]): reversible binding
Compound: COc1cc(/C=C/c2ccccc2)oc(=O)c1 [Desmethoxyyangonin, 6, desmethoxyyangonin]

IC50 (recombinant human MAO-B [1]): 10 ± 3.24 µM | IC50 (recombinant human MAO-A [2]; [9]): 6.33 ± 0.206 µM
Compound: COc1cc(O)c(C(=O)/C=C/c2ccccc2)c(O)c1 [Pinostrobin chalcone, 4, 2′,6′-dihydroxy-4′-methoxychalcone]

IC50 (recombinant human MAO-B [1]): 45.5 ± 4.31 µM | Index MAO-A/B (recombinant human MAO-B [1]): 0.524 | IC50 (recombinant human MAO-A [2]; [9]): 23.9 ± 1.35 µM
Compound: COc1cc(O)c2c(c1)O[C@H](c1ccccc1)CC2=O [Pinostrobin, 1, pinostrobin]
